The values that follow come from PubChem BioAssay AID1259407 (Chemical Carcinogenesis Research Information System (CCRIS), 2018).

The data set concerns CCRIS mutagenicity, Ames/micronucleus/aberration tests. Briefly: CCRIS mutagenicity studies.
Where [1] appears, read: Test System: AMES SALMONELLA TYPHIMURIUM, Strain/Indicator: TA98, Metabolic Activation: NONE, Method: STANDARD PLATE.
[2] abbreviates: Test System: AMES SALMONELLA TYPHIMURIUM, Strain/Indicator: TA100, Metabolic Activation: NONE, Method: STANDARD PLATE.
Where [3] appears, read: Test System: AMES SALMONELLA TYPHIMURIUM, Strain/Indicator: TA97, Metabolic Activation: NONE, Method: PREINCUBATION
[4] abbreviates: Test System: AMES SALMONELLA TYPHIMURIUM, Strain/Indicator: TA98, Metabolic Activation: NONE, Method: PREINCUBATION
[5] abbreviates: Test System: AMES SALMONELLA TYPHIMURIUM, Strain/Indicator: TA100, Metabolic Activation: NONE, Method: PREINCUBATION
Where [6] appears, read: Test System: AMES SALMONELLA TYPHIMURIUM, Strain/Indicator: TA1535, Metabolic Activation: NONE, Method: PREINCUBATION

The structures appear in SMILES notation. The source made the active and inactive calls. The rule behind the calls is not given here.

In the case of `CC/C(=C(/CC)c1ccc(OP(=O)(O)O)cc1)c1ccc(OP(=O)(O)O)cc1`, the mutagenic call was “inactive; negative” under setting [1]; “inactive; negative” under setting [2]; “inactive; negative” (Test System: E. COLI, Strain/Indicator: WP2 (HCR), Metabolic Activation: NONE, Method: STANDARD PLATE).

Turning to `O=c1ccc(=O)c2c(=O)c(Cl)c(Cl)c(=O)c1=2`, the mutagenic call under setting [3] is “inactive; negative”; the mutagenic call (Test System: AMES SALMONELLA TYPHIMURIUM, Strain/Indicator: TA97, Metabolic Activation: RAT, LIVER, S-9, PHENOBARBITAL AND 5,6-BENZOFLAVONE, Method: PREINCUBATION) is “active; positive”; the mutagenic call under setting [4] is “inactive; negative”; the mutagenic call (Test System: AMES SALMONELLA TYPHIMURIUM, Strain/Indicator: TA98, Metabolic Activation: RAT, LIVER, S-9, PHENOBARBITAL AND 5,6-BENZOFLAVONE, Method: PREINCUBATION) was “inactive; negative”; the mutagenic call under setting [5] was “inactive; negative”; the mutagenic call (Test System: AMES SALMONELLA TYPHIMURIUM, Strain/Indicator: TA100, Metabolic Activation: RAT, LIVER, S-9, PHENOBARBITAL AND 5,6-BENZOFLAVONE, Method: PREINCUBATION) was “inactive; negative”. Also, the mutagenic call (Test System: AMES SALMONELLA TYPHIMURIUM, Strain/Indicator: TA102, Metabolic Activation: NONE, Method: PREINCUBATION) was “active; positive”; the mutagenic call (Test System: AMES SALMONELLA TYPHIMURIUM, Strain/Indicator: TA102, Metabolic Activation: RAT, LIVER, S-9, PHENOBARBITAL AND 5,6-BENZOFLAVONE, Method: PREINCUBATION) is “active; positive”; the mutagenic call (Test System: AMES SALMONELLA TYPHIMURIUM, Strain/Indicator: TA104, Metabolic Activation: NONE, Method: PREINCUBATION) was “active; positive”; the mutagenic call (Test System: AMES SALMONELLA TYPHIMURIUM, Strain/Indicator: TA104, Metabolic Activation: RAT, LIVER, S-9, PHENOBARBITAL AND 5,6-BENZOFLAVONE, Method: PREINCUBATION) is “active; positive”; the mutagenic call under setting [6] is “inactive; negative”; the mutagenic call (Test System: AMES SALMONELLA TYPHIMURIUM, Strain/Indicator: TA1535, Metabolic Activation: RAT, LIVER, S-9, PHENOBARBITAL AND 5,6-BENZOFLAVONE, Method: PREINCUBATION) is “inactive; negative”. Besides, the mutagenic call (Test System: AMES SALMONELLA TYPHIMURIUM, Strain/Indicator: TA1537, Metabolic Activation: NONE, Method: PREINCUBATION) was “inactive; negative”; the mutagenic call (Test System: AMES SALMONELLA TYPHIMURIUM, Strain/Indicator: TA1537, Metabolic Activation: RAT, LIVER, S-9, PHENOBARBITAL AND 5,6-BENZOFLAVONE, Method: PREINCUBATION) was “inactive; negative”; the mutagenic call (Test System: AMES SALMONELLA TYPHIMURIUM, Strain/Indicator: TA1538, Metabolic Activation: NONE, Method: PREINCUBATION) was “inactive; negative”; the mutagenic call (Test System: AMES SALMONELLA TYPHIMURIUM, Strain/Indicator: TA1538, Metabolic Activation: RAT, LIVER, S-9, PHENOBARBITAL AND 5,6-BENZOFLAVONE, Method: PREINCUBATION) is “inactive; negative”; the mutagenic call (Test System: AMES SALMONELLA TYPHIMURIUM, Strain/Indicator: TA2637, Metabolic Activation: NONE, Method: PREINCUBATION) is “active; positive”; the mutagenic call (Test System: AMES SALMONELLA TYPHIMURIUM, Strain/Indicator: TA2637, Metabolic Activation: RAT, LIVER, S-9, PHENOBARBITAL AND 5,6-BENZOFLAVONE, Method: PREINCUBATION) is “active; positive”.

For `O=C1c2ccccc2C(=O)c2c1cc(O[C@H]1O[C@H](CO[C@@H]3OC[C@@H](O)[C@H](O)[C@H]3O)[C@@H](O)[C@H](O)[C@H]1O)c(CO)c2O`, the mutagenic call by setting is: (Test System: AMES SALMONELLA TYPHIMURIUM, Strain/Indicator: TA98, Metabolic Activation: NONE, Method: PREINCUBATION (PH 6.5 OR 7.4)) “inactive; negative”; (Test System: AMES SALMONELLA TYPHIMURIUM, Strain/Indicator: TA98, Metabolic Activation: RAT, LIVER, S-9, SODIUM BARBITAL AND BETA-NAPHTHOFLAVONE, Method: PREINCUBATION (PH 6.5 OR 7.4)) “inactive; negative”; (Test System: AMES SALMONELLA TYPHIMURIUM, Strain/Indicator: TA100, Metabolic Activation: NONE, Method: PREINCUBATION (PH 6.5 OR 7.4)) “active; positive”; (Test System: AMES SALMONELLA TYPHIMURIUM, Strain/Indicator: TA100, Metabolic Activation: RAT, LIVER, S-9, SODIUM BARBITAL AND BETA-NAPHTHOFLAVONE, Method: PREINCUBATION) “inactive; negative”.

Turning to `COP(=O)(OC)C(OC(=O)CCl)C(Cl)(Cl)Cl` (stereo not given), the mutagenic call under setting [1] was “inactive; negative”; the mutagenic call (Test System: AMES SALMONELLA TYPHIMURIUM, Strain/Indicator: TA98, Metabolic Activation: RAT, LIVER, S-9, AROCLOR, Method: STANDARD PLATE) is “inactive; negative”; the mutagenic call under setting [2] was “inactive; negative”; the mutagenic call (Test System: AMES SALMONELLA TYPHIMURIUM, Strain/Indicator: TA100, Metabolic Activation: RAT, LIVER, S-9, AROCLOR, Method: STANDARD PLATE) is “inactive; negative”; the mutagenic call (Test System: AMES SALMONELLA TYPHIMURIUM, Strain/Indicator: TA1535, Metabolic Activation: NONE, Method: STANDARD PLATE) was “inactive; negative”; the mutagenic call (Test System: AMES SALMONELLA TYPHIMURIUM, Strain/Indicator: TA1535, Metabolic Activation: RAT, LIVER, S-9, AROCLOR, Method: STANDARD PLATE) is “inactive; negative”. Moreover, the mutagenic call runs as follows: (Test System: AMES SALMONELLA TYPHIMURIUM, Strain/Indicator: TA1537, Metabolic Activation: NONE, Method: STANDARD PLATE) “inactive; negative”; (Test System: AMES SALMONELLA TYPHIMURIUM, Strain/Indicator: TA1537, Metabolic Activation: RAT, LIVER, S-9, AROCLOR, Method: STANDARD PLATE) “inactive; negative”.

As to `O=C(NO)OCc1ccccc1`, the mutagenic call (Test System: E. COLI, Strain/Indicator: WP2 UVRA, Metabolic Activation: NONE, Method: FLUCTUATION TEST) was “active; positive”.

Turning to `Clc1ccc(COC(Cn2ccnc2)c2ccc(Cl)cc2Cl)cc1` (stereo not given), the mutagenic call (End Point: IN VITRO MICRONUCLEUS, Test System: HAMSTER V79 CELLS, Metabolic Activation: NONE) was “inactive; negative”; the mutagenic call (Test System: AMES SALMONELLA TYPHIMURIUM, Strain/Indicator: TA97, Metabolic Activation: HAMSTER, LIVER, S-9, AROCLOR 1254 (10 OR 30%), Method: PREINCUBATION) is “inactive; negative”; the mutagenic call under setting [3] is “inactive; negative”; the mutagenic call (Test System: AMES SALMONELLA TYPHIMURIUM, Strain/Indicator: TA97, Metabolic Activation: RAT, LIVER, S-9, AROCLOR 1254 (10 OR 30%), Method: PREINCUBATION) is “inactive; negative”; the mutagenic call (Test System: AMES SALMONELLA TYPHIMURIUM, Strain/Indicator: TA98, Metabolic Activation: HAMSTER, LIVER, S-9, AROCLOR 1254 (10 OR 30%), Method: PREINCUBATION) is “inactive; negative”; the mutagenic call under setting [4] was “inactive; negative”. Further, the mutagenic call (Test System: AMES SALMONELLA TYPHIMURIUM, Strain/Indicator: TA98, Metabolic Activation: RAT, LIVER, S-9, AROCLOR 1254 (10 OR 30%), Method: PREINCUBATION) is “inactive; negative”; the mutagenic call (Test System: AMES SALMONELLA TYPHIMURIUM, Strain/Indicator: TA100, Metabolic Activation: HAMSTER, LIVER, S-9, AROCLOR 1254 (10 OR 30%), Method: PREINCUBATION) is “inactive; negative”; the mutagenic call under setting [5] is “inactive; negative”; the mutagenic call (Test System: AMES SALMONELLA TYPHIMURIUM, Strain/Indicator: TA100, Metabolic Activation: RAT, LIVER, S-9, AROCLOR 1254 (10 OR 30%), Method: PREINCUBATION) is “inactive; negative”; the mutagenic call (Test System: AMES SALMONELLA TYPHIMURIUM, Strain/Indicator: TA1535, Metabolic Activation: HAMSTER, LIVER, S-9, AROCLOR 1254 (10 OR 30%), Method: PREINCUBATION) was “inactive; negative”; the mutagenic call under setting [6] was “inactive; negative”. Moreover, for the setting “Test System: AMES SALMONELLA TYPHIMURIUM, Strain/Indicator: TA1535, Metabolic Activation: RAT, LIVER, S-9, AROCLOR 1254 (10 OR 30%), Method: PREINCUBATION”, the mutagenic call was “inactive; negative”.

Regarding `Cc1cccc2ccc3cc4ccccc4cc3c12`, the mutagenic call (Test System: AMES SALMONELLA TYPHIMURIUM, Strain/Indicator: TA100, Metabolic Activation: RAT, INTACT HEPATOCYTES, AROCLOR 1254, Method: PREINCUBATION) is “active; positive”; the mutagenic call (Test System: AMES SALMONELLA TYPHIMURIUM, Strain/Indicator: TA100, Metabolic Activation: RAT, NADPH-FORTIFIED HOMOGENIZED HEPATOCYTES, AROCLOR 1254, Method: PREINCUBATION) was “active; positive”; the mutagenic call (Test System: AMES SALMONELLA TYPHIMURIUM, Strain/Indicator: TA100, Metabolic Activation: RAT, SONICATED HEPATOCYTES, AROCLOR 1254, Method: PREINCUBATION) was “active; positive”.
